# Data taken from patent US12390435B2, “Electrophiles and electrophile pro-drugs as RAD51 inhibitors” (University of Pittsburgh—Of the Commonwealth System of …, priority 2018, dated 2025).
# Entries after “also recorded” stand apart in the source; their conditions may differ.
# What was measured:
# MDA-MB-231 cells [1] = assay: CellTiter-Glo relative growth (luminescent ATP); format: cell-based; settings: for EC50 for growth inhibition, compared between compounds: ATP Celltiter Glo proliferation assay, n=3
# Method: HEK 293T, MDA-MB-231, MDA-MB-468, Hs578T and BT-549 cells (American Type Culture Collection) were cultured at 37° C. with 5% CO2 in Dulbecco's modified Eagle's medium containing (DMEM) (Gibco) supplemented with 5% FBS (HyClone), 100 units/ml penicillin, […] streptomycin (Gibco), non-essential amino acids (Gibco) and 2 mM 1-glutamine (Gibco). Doxorubicin (Selleckchem), cisplatin (Sigma) or olaparib (Selleckchem) were dissolved in DMSO or DMF (cisplatin). […] Pure NO2-OA was diluted in DMSO and added to cells after solvation in assay media. Relative cell numbers were compared by measuring the luminescent signal generated by ATP using the CellTiter-Glo (Promega) assay. Cells were plated in a 96-well plate at 5,000 (MDA-MB-231) or 6,600 (BT549 or Hs578T) cells per well.
# Data represent the mean±SEM from 3 independent experiments unless otherwise noted. A p value<0.05 was considered statistically significant. Non-linear curves were generated in GraphPad Prism 7.0 (GraphPad Software, La Jolla, CA, USA) for statistical analysis. EC50 values and standard error were calculated from three independent experiments utilizing a non-linear dose response variable slope model. Significance was tested by one-way ANOVA for multiple groups with Tukey posttest or by t-test when groups were less than three. RAD51 foci number was analyzed with ImageJ. Nuclear boundaries were individually identified in more than 50 cells per treatment group in three independent experiments.
# The growth of BT-549 cells was not affected. […] MDA-MB-231 cells were plated in a 96 well plate and treated with talazoparib (0.01-75 μM) plus OA-NO2 or NDA-NO2 (0.2-12 μM) daily for 3 days. Growth inhibition (relative cell numbers) of MDA-MB-231 cells was determined by luminescent detection of ATP (CellTiter-Glo) (FIG. 1K).
# MDA-MB 231 TNBC cells = assay: Metabolism in MDA-MB-231 cells by HPLC-MSMS; format: in vitro ADME; settings: for omega hydroxylation and carboxylation: 10 uM; for omega hydroxylation and carboxylation / cysteine adduct formation: cell media and cell homogenate
# Method: FIG. 18. […] Growth inhibition was assessed using the ATP Celltiter Glo proliferation assay and compounds were used at different concentration to determine their EC50. CP-1 had the lowest EC50 followed by 7-NDA and 8-NDA. […] The different metabolic pathways of 7-NDA and 8-NDA have been characterized in MDA-MB-231 TNBC cells. MDA-MB 231 TNBC cells incorporate and metabolize 7-NDA and 8-NDA through beta oxidation (FIG. 19). Inactivation of the active 7-NDA and 8-NDA nitroalkene group is achieved through reduction to a nitroalkane (FIG. 20).
# FIG. 19. […] Dinor 7-NDA corresponds to one beta-oxidation cycle while tetranor corresponds to two beta oxidation cycles. […] Formation of both Dinor and Tetranor 8-NDA are shown. Chromatograms correspond to the detection by HPLC-MSMS of the different compounds in negative ion mode using MRMs on a triple quadrupole mass spectrometer.
# FIG. 20. […] Chromatograms correspond to the detection by HPLC-MSMS of the different compounds in negative ion mode using MRMs on a triple quadrupole mass spectrometer.
# FIG. 21. […] Chromatograms correspond to the detection by HPLC-MSMS of the different using specific MRM transitions on a triple quadrupole mass spectrometer.
# FIG. 22. […] Dicarboxylic acids of both 7-NDA and 8-NDA have been detected in cell media and cell homogenate from cell treated with 10 uM 7-NDA or 8-NDA. Chromatograms correspond to the detection by HPLC-MSMS of the different using specific MRM transitions on a triple quadrupole mass spectrometer.
# IKKβ = assay: TNFα-induced IKKβ phosphorylation, IκBα phosphorylation and degradation; format: cell-based
# Method: All studies used two TNBC cell lines, MDA-MB-231 and MDA-MB-468. […] For IκBα degradation, cells were treated as described above and stimulated with 20 ng/mL TNFα for 10 min.
# (§1) Western blotting was performed. 20-60 μg of total lysates per lane were loaded on 7%, 10%, or 12% SDS-PAGE and transferred onto nitrocellulose or polyvinylidene difluoride membranes (Bio-Rad). The membranes were probed with primary antibodies against caspase-3, multi-drug resistance protein-1 (MRP1), poly [ADP ribose] polymerase-1 (PARP-1), ubiquitin, RelA; cyclin D1, p21, caspase-9, MRP4, IKKβ, pIKKβ, IκBα, or pIκBα (Cell Signaling); caspase-8 (R&D Systems). Samples were normalized to β-actin (Sigma-Aldrich) or GAPDH (Trevigen).
# MDA-MB-468 cells = assay: Matrigel cell invasion assay; format: cell-based; settings: NO2-OA/NO2-SA 5 μM, JSH-23 10 μM, TNFα 20 ng/mL, 24 hr
# Method: Cells were then suspended in migration media and placed in the top well of invasion chambers (EMD Millipore). Chemoattractant (5% FBS) was placed in the lower chamber for 24 hr at 37° C. to attract invasive cells. Cells were then harvested and invasion rates were determined according to manufacturer's protocol. Three individual experiments were done, and statistical comparison among treatments was determined by one-way analysis of variance followed by Tukey post-test.
# [2] = system: RelA in MDA-MB-231 and MDA-MB-468 cells; assay: RelA protein level and polyubiquitination; format: cell-based; settings: 5 μM, 24 hr
# Method: Lysates were clarified by centrifugation at 14,000×g for 10 min. Protein lysates (1 mg) were incubated with anti-RelA antibody and Protein G/A conjugated agarose beads (EMD Millipore, Bedford, MA) at 4° C., overnight. Immunoprecipitation fraction were obtained by centrifugation at 14,000×g for 1 min at RT and washed with lysis buffer three times. The immunoprecipitated RelA was resolved by 8% SDSPAGE gel, and transferred to nitrocellulose membrane (Bio-Rad) for immunoblotting probed with an anti-ubiquitin antibody (Santa Cruz Biotechnology). The blot was then stripped and probed with an anti-RelA antibody to assess amounts of RelA protein pull-down.
# as §1
# [3] = system: MDA-MB-231 and MDA-MB-468 cells; assay: FACS cell cycle analysis; format: cell-based; settings: MCF-10A, MDA-MB-231 and MDA-MB-468 cells, 24 hr
# Method: Adherent and nonadherent cells were collected, centrifuged at 2000×rpm for 10 min, washed with ice-cold phosphate-buffered saline, fixed with cold 70% ethanol at 4° C. for 30 mins, and stained with 50 μg/mL propidium iodide (Sigma-Aldrich). FACS analysis was performed at the University of Pittsburgh Department of Immunology Unified Flow Core Facility. Three individual experiments were done, and statistical comparisons among phases (G0/G1, S, and G2/M) were determined by one-way analysis of variance followed by Tukey post-test.
# [4] = system: NF-κB transcriptional activity; assay: NF-κB luciferase reporter; format: cell-based; settings: MDA-MB-231 and MDA-MB-468 cells, 5 μM 2 hr then TNFα 20 ng/mL 4 hr
# Method: Luciferase-chemiluminescence-based analysis of NF-κB transcriptional activity was performed. MDA-MB-231 and MDA-MB-468 cells (˜70% confluence) in 12-well plates were transiently transfected with a NF-κB-luciferase reporter plasmid (Stratagene, La Jolla, CA) with Lipofectamine 3000. […] Each transfection was performed in triplicate. Luciferase activity was measured using the Dual-luciferase assay kit (Promega). Relative light units (RLU) were measured using a 96-well plate luminometer, according to the manufacturer's instructions (Victor II, PerkinElmer Life Sciences). Protein concentration was determined using the BCA Assay (Thermo Fisher Scientific). Data represents the ratio of treated samples to controls in the context of mean RLU/protein content, +/−SD. Three individual experiments were done, and statistical significance was determined by Kruskal-Wallis test followed by Dunn's post-test with Bonferroni corrections for multiple comparisons.
# MDA-MB-231 cells [5] = assay: Cell growth assay (FluoReporter dsDNA); format: cell-based; settings: TNBC cell lines MDA-MB-231 and MDA-MB-468, 48 hr
# Method: Cells were plated at a cell density of 5000 cells per well in 96-well plates. […] Cells were counted using the FluoReporter dsDNA quantitation kit (Molecular Probes) according to the manufacturer's instructions. Fluorescence was measured using a SpectraMax M2 plate reader (Molecular Devices). […] Three individual experiments were done (n=5/each), and statistical comparison between two cell lines across doses was determined by two-way analysis of variance followed by Tukey post-test.
# [6] = system: human high grade serous ovarian cancer cells; assay: Cell growth/viability by luminescent ATP with PARP inhibitors; format: cell-based; settings: with Olaparib or Talazoparib
# Method: Cell growth/viability is determined from luminescent detection of cell ATP concentration.
# [7] = system: homologous recombination (DR-GFP, U2OS cells); assay: DR-GFP HR reporter assay in U2OS cells; format: cell-based; settings: FIG. 16B
# Method: Measurements of NHEJ, HR, Alt-EJ and SSA assays were performed as previously described. HR activity was measured by counting GFP-positive cells by flow cytometry at the MWRI flow cytometry core using a BD LSRII (BD Biosciences). RAD51 overexpressing cells were generated by stable transfection of pLVX RAD51 IRES Neo and selection with geneticin (Invitrogen).
# U2OS cells were prepared as above, but 5 h following compound treatment, cells were transferred into the Incucyte Zoom (Essen) live-cell imaging automated fluorescence microscope at 37° C. with 5% CO2. Cell confluence and green object count per mm2 were determined using Incucyte Zoom software. Green object count per field was normalized to cell confluency to correct for NO2—OA-induced effects on cell proliferation.
# NO2-OA-dependent effects on HR DNA repair were further investigated by utilizing a DRGFP reporter assay. This analysis quantifies intracellular recombination of an integrated cDNA cassette of two tandem non-fluorescent GFP constructs following introduction of an I-SceI cleavage to the system by measuring the fluorescent GFP protein that is produced following successful recombination. […] A novel strategy was used to measure the kinetics of changes in HR in live cells by using automated fluorescence microscopy to track the emergence of GFP positive cells over time in monolayers, as opposed to making static measurements of detached cells using flow cytometry. […] This was indicated by an absence of changes in the number of GFP positive cells following I-SceI cleavage after 48 h by flow cytometric analysis or over 68 h by live-cell fluorescence microscopy (FIGS. 2C, 2D).
molecule,measurement,setting,value
"CCCCCCCCCCC/C=C(\CCCCCC(=O)O)[N+](=O)[O-] [7-NDA, 7-NO2-nonadec-7-enoic acid]","EC50 for growth inhibition, compared between compounds",MDA-MB-231 cells [1],more sensitive to 7-NDA and 8-NDA when compared to OA-NO2
same,IC50 compared with NO2-OA,MDA-MB-231 cells [1]; FIG. 12,lower IC50 compared NO2-OA
same,"Combination index (CI), Chou-Talalay","MDA-MB-231 cells [1]; with talazoparib (0.01-75 μM), 0.2-12 μM, daily 3 days, CI<1 is synergistic",better combination indices; also recorded: better CI values compared to OA-NO2
same,"formation of active nitroalkene beta-oxidation metabolites (dinor, tetranor)",MDA-MB 231 TNBC cells,"does not result in the formation of active, nitroalkene containing metabolites"
same,omega hydroxylation and carboxylation,MDA-MB 231 TNBC cells,omega hydroxylation and carboxylation
same,cysteine adduct formation,MDA-MB 231 TNBC cells,form cysteine adducts that are detected in cell media and cell homogenate
"CCCCCCCCCCC/C(=C\CCCCCC(=O)O)[N+](=O)[O-] [8-NDA, 8-NO2-nonadec-7-enoic acid]","EC50 for growth inhibition, compared between compounds",MDA-MB-231 cells [1],more sensitive to 7-NDA and 8-NDA when compared to OA-NO2
same,"formation of active nitroalkene beta-oxidation metabolites (dinor, tetranor)",MDA-MB 231 TNBC cells,result in the active (structures having the reactive nitroalkene moiety) beta-oxidation products
same,omega hydroxylation and carboxylation,MDA-MB 231 TNBC cells,omega hydroxylation and carboxylation
same,cysteine adduct formation,MDA-MB 231 TNBC cells,form cysteine adducts that are detected in cell media and cell homogenate
"Cc1ccc(S(=O)(=O)/C=C/C#N)cc1 [BAY11-7082, 3[(4-methylphenyl)sulfonyl]-(2E)-propenenitrile, reference compound]",TNFα-induced IKKβ phosphorylation,"IKKβ; NO2-OA 5 μM or BAY11-7082 10 μM 2 hr, TNFα 20 ng/mL 5 min",diminished
same,degradation of IκBα following TNFα stimulation,"IKKβ; TNFα 20 ng/mL, 10 min",inhibited the degradation of IκBβ
same,IκBα phosphorylation,IKKβ; with proteasome inhibitor MG-132 10 μM,decreased IκBβ phosphorylation
"Cc1ccc(NCCCc2ccccc2)c(N)c1 [JSH-23, 4-Methyl-N1-(3-phenyl-propyl)-benzene-1,2-diamine]",TNFα-induced invasion,MDA-MB-468 cells,inhibition of MDA-MB-468 cell invasion
"CCCCCCCCC(CCCCCCCCC(=O)O)[N+](=O)[O-] (stereo not drawn) [NO2—SA, 10-nitro-octadecanoic acid, reference compound]",RelA protein abundance,[2],no effect
same,cell cycle populations and regulatory proteins,[3],did not affect cell cycle populations
same,TNFα-induced invasion,MDA-MB-468 cells,marginal effects
same,NF-κB-dependent transcription of luciferase,[4],no effect
same,TNBC cell growth,MDA-MB-231 cells [5],did not affect TNBC cell growth
"CCCCCCCCC=CCCCCCCCC(=O)O [OA, octadec-9-enoic acid, reference compound]","EC50 for growth inhibition, compared between compounds",MDA-MB-231 cells [1],did not induce any growth inhibition
same,NF-κB-dependent transcription of luciferase,[4],no effect
methyl-ethyl-4-nitro-oct-4-enedioate [CP-1],concentration of PARP inhibitor needed for 50% tumor cell killing,[6],lowers the concentration of the PARP inhibitors
same,"EC50 for growth inhibition, compared between compounds",MDA-MB-231 cells [1],lower EC50 than OA-NO2; also recorded: lowest EC50
same,inhibition of homologous recombination,[7],inhibition of homologous recombination
